Experimental data published in patent publication US6858393B1, “Chain terminators for DNA synthesis” (Stratagene California, priority 2002, dated 2005).

Tested on: DNA polymerase (JDF-3 P41OL/A485T)
Test: Assay for incorporation of chain terminators (primer extension, denaturing PAGE on ABI 377 sequencer)
Type: biochemical
Conditions: for terminator/dNTP ratio giving a similar pattern (signal strength and length): FIG. 8, ddATP lane 2, PME-App lane 3, dNTPs each at 50 μM, 25 cycles
Experimental: Reactions (20 μl) consisted of 0.5 pmol fluorescein-labeled primer pFI-20, 1 pmol pBluescript II, 5 U DNA polymerase (JDF-3 P41OL/A485T), all four dNTPs (each at 50 μM) and varying concentrations of only ddATP or PME-App in 20 mM Tris pH 8.8, 10 mM (NH4)2SO4, and 2 mM MgSO4. Reactions were incubated in a Perkin-Elmer 9600 for 25 cycles as follows: 95° C. for 30 s, 50° C. for 30 s and 72° C. for 4 min. The reactions were quenched with ice-cold 0.2 M EDTA (final concentration), dried, and the pellets dissolved in a 3:1 formamide: EDTA/blue dextran. Reactions were then analyzed by 6% denaturing PAGE on an ABI 377 sequencer.
The relative ratio can be determined more exactly by repeating the reactions over a narrower range of ratios.

Compound | terminator/dNTP ratio giving a similar pattern (signal strength and length) | relative incorporation efficiency of ddATP versus PME-App (ddATP better than PME-App, from comparison of lane patterns in FIG. 8, all four dNTPs each at 50 μM) [fold]
Nc1ncnc2c1ncn2CCOCP(=O)(O)OP(=O)(O)OP(=O)(O)O [PME-App, PME-adenine diphosphate] | 1/5 | 
Nc1ncnc2c1ncn2[C@H]1CC[C@@H](COP(=O)(O)OP(=O)(O)OP(=O)(O)O)O1 [ddATP] | 1/10 | 2
